# US20180271847A1, “TREATMENT OF ACUTE TRAUMATIC INJURY” (priority 2015, published 2018)
# Experiments:
# Type in all cases: in vivo
# [1] = system: lipofuscin; experiment: Auto-fluorescence / lipofuscin accumulation after spinal cord contusion injury; settings: rats with contusion injuries to the spinal cord
# Text: 4-aminopyridine administration decreases auto-fluorescence following contusion injury to the spinal cord. One of the responses to tissue injury in a broad variety of tissues is the accumulation of substances that may be given the general name of lipofuscin, a name given to lipid-containing residues of lysosomal digestion. This pigment is thought to be the product of oxidation of unsaturated fatty acids and is considered indicative of membrane damage of a nature that occurs widely in tissue injury, a variety of diseases and in aging. Lipofuscin is most readily observed as an auto-fluorescent component of tissue that is seen when tissue is excited with a wide range of […] wavelengths normally used for studying fluorescently labeled proteins, such as antibodies, that are widely used in studying all of the tissues of the body. Lipofuscin accumulation has been reported for cell types of a wide range of tissues, particularly after injury, including liver, kidney, heart muscle, retina, adrenal gland, nerve cells, and red-blood cells, in post-traumatic arthritis and in other tissues.
# This is another wholly unexpected ability of 4-AP to beneficially modulate an outcome of traumatic injury that is applicable to a wide range of different tissues.
# [2] = system: contusion injury to the spinal cord; experiment: Lesion volume 3 days after spinal cord contusion injury; settings: rats with spinal cord contusion, sacrificed 3 days after injury
# Procedure: FIG. 7 is a graph showing the unexpected ability of 4-AP to modulate outcomes of traumatic injury that are of relevance to the injury in all tissues of the body is the ability to decrease lesion size. In these experiments, rats received identical injuries as discussed in Example 1, except that these rats were sacrificed 3 days after injury. Lesion size, in cubic millimeters (mm^3) was calculated by imaging collected tissue sections covering the full dimensions of the injury using Stereolnvestigator and contours were traced to cover the region of the tissue in which damage was apparent. All slides were measured by a blinded individual. Lesion volume was thus determined. […]
# Still another example of the unexpected ability of 4-AP to modulate outcomes of traumatic injury that are of relevance to such injury in all tissues of the body is the ability to decrease lesion size. […] Lesion size, in cubic millimeters (mm^3) was calculated by imaging collected tissue sections covering the full dimensions of the injury using Stereolnvestigator and contours were traced to cover the region of the tissue in which damage was apparent. All slides were measured by a blinded individual. Lesion volume was thus determined.
# [3] = system: motor neurons; experiment: Count of large NeuN+ putative motor neurons in spinal cord 28 days after injury; settings: rats, 28 days after spinal cord injury; large NeuN+ cells, ventral side of the cord
# Text: FIGS. 8A-8C show the rescue of motor neurons by administration of 4-AP in acute traumatic injury to the spinal cord of the central nervous system. Another example of an unanticipated ability of the administration of 4-AP to provide benefit in acute traumatic injury was obtained by examining the number of motor neurons present in spinal cords of rats analyzed 28 days after injury, as in Example 1. Tissue sections were labeled with antibodies to the NeuN antigen, which is a marker of all neuronal populations. Due to the size and location of these neurons, they can only be motor neurons. Large neurons on the ventral side of the cord were then counted, in regions similarly distal or proximal to the lesion site. […] FIGS. 8B and 8C are graphs showing quantification of large NeuN+ cells in 1 mm^3 region proximal (p=0.06) and distal (p=0.04) to the lesion edge in 4-AP and control sections. […]
# Rescue of motor neurons by administration of 4-AP in acute traumatic injury to the spinal cord of the central nervous system. Another example of an unexpected ability of the administration of 4-AP to provide benefit in acute traumatic injury was obtained by examining the number of motor neurons present in spinal cords of rats analyzed 28 days after injury, as in Example 1. […] Large neurons on the ventral side of the cord were then counted, in regions similarly distal or proximal to the lesion site.
# [4] = system: sciatic nerve crush; experiment: Electron microscopy of sciatic nerve after crush injury with local 4-AP PLGA films
# Text: A comparison of the axonal area of randomly chosen individual axons of vehicle treated and 4-AP treated mice (n=4 for each experimental group; 40 axons analyzed per mouse) is shown. […] (**: p<0.01; ANOVA).
# In the experiment below, mice received crush injuries to the sciatic nerve and then a sustained release formulation of 4-AP in a PLGA formulation (4-AP films) was applied locally at the site of injury. At the time that nerve conduction velocity began to recover, nerves were isolated and studied by electron microscopy. […] In uninjured myelinated axons, the average area of a myelinated axon (excluding the myelin) was 11.2+/−1.3 μm^2. In injured nerves treated with PLGA film only, the average area of myelinated axons decreased to 5.7+/−0.2 μm^2 (FIG. 9A). In nerves treated with 4-AP-containing films, the average area of myelinated axons was 6.7+/−0.4 μm^2 (p<0.05 versus mice treated only with film). In addition, the proportion of axons with areas above the average value for uninjured nerves was 5+/−3% in injured nerves treated with vehicle alone but increased to 15+/−2% in nerves treated with 4-AP containing films (p<0.05).
# On day 21 after injury, the average thickness of the myelin within the injured area was 0.53+/−0.03 μm but was 0.95+/−0.14 μm with localized 4-AP administration (p<0.01), as compared with an average myelin thickness in uninjured nerves of 1.26+/−0.08 μm. […] The myelin area was also measured (FIG. 9C, D) and it was determined that the average cross-sectional area of myelin per myelinated large axon in uninjured nerve was 14.8+/−1.7 μm^2, 4.9+/−0.3 μm^2 in injured nerve, and was restored to 10.1+/−0.7 μm^2 with localized 4-AP administration (p<0.01). In 4-AP treated mice, 21.2+/−9.3% of axons had myelin areas that were above the average for uninjured nerve, while this value in vehicle-treated mice was only 1.9+/−1.4%.
# The benefits of treatment were also observed by analysis of the ratio of the area of the axon to the area of the axon plus associated myelin. This g^area ratio, a variant of the usually employed g-ratio, was calculated due to the decreased circularity in injured nerve. […] However, with local 4-AP treatment, the g^area-ratio was in the normal range of 0.43+/−0.09 (p<0.01) (FIG. 9D).
# The number of total myelinated axons per TEM grid examined (2310 μm^2) was 82+/−5 axons in undamaged nerve, as compared with 55+/−4 axons in injured vehicle-treated mice and 71+/−4 axons in 4-AP treated mice (p<0.01 for vehicle-treated vs. 4-AP treated mice).
# [5] = mice, localized 4-AP (PLGA films)
smiles,measurement,setting,value
"Nc1ccncc1 [4-AP, 4-aminopyridine]",lipofuscin accumulation (tissue auto-fluorescence),[1],little evidence of lipofuscin accumulation
same,lesion size (lesion volume),[2],greatly decreasing lesion size
same,number of motor neurons in regions distal to the injury,[3],clearly significant increase in the number of motor neurons
same,number of motor neurons in regions proximal to the injury,[3],very similar degree of increase in motor neurons
same,myelinated axons with a g^area-ratio less than the average for uninjured mice,[4]; 21 days after injury,54.4+/−18.5%
same,average g^area-ratio (area of the axon to area of the axon plus associated myelin),"[4]; mice, 21 days after injury, local 4-AP treatment",0.43+/−0.09
same,number of total myelinated axons per TEM grid examined (2310 μm^2),"[4]; mice, 21 days post injury",71+/−4 axons
same,axons with myelin thickness above the average for uninjured nerve,"[4]; mice, day 21, localized 4-AP (PLGA films)",21.4+/−10.8%
same,average thickness of the myelin within the injured area,"[4]; mice, day 21 after injury, localized 4-AP (PLGA films)",0.95+/−0.14 μm
same,average cross-sectional area of myelin per myelinated large axon,[4]; [5],10.1+/−0.7 μm^2
same,axons with myelin areas above the average for uninjured nerve,[4]; [5],21.2+/−9.3%
